Assay results as given in ChEMBL document CHEMBL1201862, “PubChem BioAssay data set” (2004).
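96-well plates; 48 h exposure; 5 concentrations. Endpoints by linear interpolation between flanking doses. Not reached: highest tested concentration assigned. Abbreviation: GI50, concentration required for 50% inhibition of growth.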 Calls of active or inactive are those of the source. Cut-off read from the data, not from the text of the source: active = GI50 up to about 1.1 µM and inactive = higher.

Legend:
Assay in all cases: NCI anticancer screen, dose series, 48 h
[1] = system: 786-0
[2] = system: A498
[3] = system: A549
[4] = system: ACHN
[5] = system: BT-549
[6] = system: CAKI-1
[7] = system: CCRF-CEM
[8] = system: COLO 205
[9] = system: DU-145
[10] = system: EKVX
[11] = system: HCC 2998
[12] = system: HCT-116
[13] = system: HCT-15
[14] = system: HL-60
[15] = system: HOP-62
[16] = system: HOP-92
[17] = system: HT-29
[18] = system: Hs-578T
[19] = system: IGROV-1
[20] = system: K562
[21] = system: KM12
[22] = system: LOX IMVI
[23] = system: M14
[24] = system: MCF7
[25] = system: MDA-MB-231
[26] = system: MDA-MB-435
[27] = system: MDA-N
[28] = system: MOLT-4
[29] = system: Malme-3M
[30] = system: NCI-H226
[31] = system: NCI-H23
[32] = system: NCI-H460
[33] = system: NCI-H522
[34] = system: NCI/ADR-RES
[35] = system: OVCAR-3
[36] = system: OVCAR-4
[37] = system: OVCAR-5
[38] = system: OVCAR-8
[39] = system: PC-3
[40] = system: RPMI-8226
[41] = system: RXF 393
[42] = system: SF-268
[43] = system: SF-295
[44] = system: SF-539
[45] = system: SK-MEL-28
[46] = system: SK-MEL-2
[47] = system: SK-MEL-5
[48] = system: SK-OV-3
[49] = system: SN12C
[50] = system: SNB-19
[51] = system: SNB-75
[52] = system: SR
[53] = system: SW-620
[54] = system: T47D
[55] = system: TK-10
[56] = system: U-251
[57] = system: UACC-257
[58] = system: UACC-62
[59] = system: UO-31

Structure (SMILES): S=C(N/N=C(/c1ccccc1)c1ccccn1)Nc1ccccc1Cl
- GI50 [1]: < 0.018 µM (active)
- GI50 [2]: 1.13 µM (inactive)
- GI50 [3]: 0.0946 µM (active)
- GI50 [4]: 0.0153 µM (active)
- GI50 [5]: 3.3 µM (inactive)
- GI50 [6]: 0.209 µM (active)
- GI50 [7]: < 10 nM (active)
- GI50 [8]: < 0.01 µM (active)
- GI50 [9]: 2.31 µM (inactive)
- GI50 [10]: 0.0785 µM (active)
- GI50 [11]: 0.673 µM (active)
- GI50 [12]: < 0.01 µM (active)
- GI50 [13]: 17.9 nM
- GI50 [14]: < 0.0865 µM (active)
- GI50 [15]: 1.77 µM (inactive)
- GI50 [16]: 226 nM (active)
- GI50 [17]: < 0.0227 µM (active)
- GI50 [18]: 2.49 µM (inactive)
- GI50 [19]: < 0.0105 µM (active)
- GI50 [20]: < 0.215 µM (active)
- GI50 [21]: 0.0649 µM (active)
- GI50 [22]: 0.0418 µM (active)
- GI50 [23]: < 0.0224 µM (active)
- GI50 [24]: < 0.01 µM (active)
- GI50 [25]: < 0.01 µM (active)
- GI50 [26]: 0.265 µM (active)
- GI50 [27]: 0.43 µM (active)
- GI50 [28]: < 10 nM (active)
- GI50 [29]: 0.0681 µM (active)
- GI50 [30]: 99.3 nM (active)
- GI50 [31]: < 0.0175 µM (active)
- GI50 [32]: 101 nM (active)
- GI50 [33]: < 0.0446 µM (active)
- GI50 [34]: < 10 nM (active)
- GI50 [35]: < 10.3 nM (active)
- GI50 [36]: 0.879 µM (active)
- GI50 [37]: 0.0243 µM (active)
- GI50 [38]: 0.0299 µM (active)
- GI50 [39]: < 0.01 µM (active)
- GI50 [40]: < 44.8 nM (active)
- GI50 [41]: 0.124 µM (active)
- GI50 [42]: 0.179 µM (active)
- GI50 [43]: 0.356 µM (active)
- GI50 [44]: 1.11 µM (active)
- GI50 [45]: 1.92 µM (inactive)
- GI50 [46]: 0.148 µM (active)
- GI50 [47]: 0.121 µM (active)
- GI50 [48]: 0.0266 µM (active)
- GI50 [49]: 0.168 µM (active)
- GI50 [50]: 4.95 µM (inactive)
- GI50 [51]: 6.64 µM (inactive)
- GI50 [52]: < 18.9 nM (active)
- GI50 [53]: < 0.01 µM (active)
- GI50 [54]: < 0.01 µM (active)
- GI50 [55]: 0.336 µM (active)
- GI50 [56]: 0.0158 µM (active)
- GI50 [57]: < 0.01 µM (active)
- GI50 [58]: 0.101 µM (active)
- GI50 [59]: 163 nM (active)

Structure (SMILES): COc1cc(-c2oc3ccccc3c(=O)c2O)cc(OC)c1OC
- GI50 [1]: 9.75 µM (inactive)
- GI50 [2]: 22 µM (inactive)
- GI50 [3]: 9.02 µM (inactive)
- GI50 [4]: 6.9 µM (inactive)
- GI50 [5]: > 55.2 µM (inactive)
- GI50 [6]: 26.2 µM (inactive)
- GI50 [7]: 3320 nM (inactive)
- GI50 [8]: 73.3 µM (inactive)
- GI50 [9]: > 31.6 µM (inactive)
- GI50 [10]: 25.3 µM (inactive)
- GI50 [11]: > 100 µM (inactive)
- GI50 [12]: 10.3 µM (inactive)
- GI50 [13]: 4620 nM
- GI50 [14]: 7.08 µM (inactive)
- GI50 [15]: 6.04 µM (inactive)
- GI50 [16]: 4060 nM (inactive)
- GI50 [17]: > 74.8 µM (inactive)
- GI50 [18]: 8.22 µM (inactive)
- GI50 [19]: 6.9 µM (inactive)
- GI50 [20]: 6.71 µM (inactive)
- GI50 [21]: > 100 µM (inactive)
- GI50 [22]: 6.24 µM (inactive)
- GI50 [23]: 14 µM (inactive)
- GI50 [24]: > 100 µM (inactive)
- GI50 [25]: 42.4 µM (inactive)
- GI50 [26]: > 100 µM (inactive)
- GI50 [27]: > 26.1 µM (inactive)
- GI50 [28]: 4720 nM (inactive)
- GI50 [29]: > 94.6 µM (inactive)
- GI50 [31]: 61 µM (inactive)
- GI50 [32]: 4190 nM (inactive)
- GI50 [33]: 11.4 µM (inactive)
- GI50 [34]: 4320 nM (inactive)
- GI50 [35]: 4280 nM (inactive)
- GI50 [36]: 7 µM (inactive)
- GI50 [37]: > 100 µM (inactive)
- GI50 [38]: 9.66 µM (inactive)
- GI50 [39]: 11.3 µM (inactive)
- GI50 [40]: 3430 nM (inactive)
- GI50 [41]: 15.6 µM (inactive)
- GI50 [42]: 11.7 µM (inactive)
- GI50 [43]: 35.7 µM (inactive)
- GI50 [44]: 26.3 µM (inactive)
- GI50 [45]: > 100 µM (inactive)
- GI50 [46]: > 100 µM (inactive)
- GI50 [47]: 6.58 µM (inactive)
- GI50 [48]: 43.4 µM (inactive)
- GI50 [49]: > 100 µM (inactive)
- GI50 [50]: > 58.9 µM (inactive)
- GI50 [51]: 6.82 µM (inactive)
- GI50 [52]: 3030 nM (inactive)
- GI50 [53]: > 80.2 µM (inactive)
- GI50 [54]: 6 µM (inactive)
- GI50 [55]: 29 µM (inactive)
- GI50 [56]: 8.77 µM (inactive)
- GI50 [57]: > 69.3 µM (inactive)
- GI50 [58]: 6.5 µM (inactive)
- GI50 [59]: 4630 nM (inactive)
